Data reported in the supplement of paper PMC4932681.
Where “and” joins values, the source holds several entries; their conditions need not be identical. Equal values may be shown once.

Tests used:
Test in all cases: viability inhibition at highest dose (% inhibition); higher = more growth inhibition
T-47D Tam2 = settings: 4-OH-tamoxifen in medium 1 µM; 72 h
Procedure: (§1)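 Percent inhibition of viability (CellTiter-Glo, 72 h) at the highest tested concentration (D5), normalised to DMSO (0%) and 100 µM benzethonium chloride (100%). Resistant lines and the 'in 1µM tamoxifen' arms were tested in 1 µM 4-OH-tamoxifen.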

T-47D = settings: 72 h
Procedure: as §1

MCF-7 Tam1 = settings: 4-OH-tamoxifen in medium 1 µM; 72 h
Procedure: as §1

BT-474 Tam1 = settings: 4-OH-tamoxifen in medium 1 µM; 72 h
Procedure: as §1

ZR-75-1 = settings: 72 h
Procedure: as §1

BT-474 = settings: 72 h
Procedure: as §1

BT-474 Tam2 = settings: 4-OH-tamoxifen in medium 1 µM; 72 h
Procedure: as §1

T-47D Tam1 = settings: 4-OH-tamoxifen in medium 1 µM; 72 h
Procedure: as §1

ZR-75-1 Tam1 = settings: 4-OH-tamoxifen in medium 1 µM; 72 h
Procedure: as §1

ZR-75-1 Tam2 = settings: 4-OH-tamoxifen in medium 1 µM; 72 h
Procedure: as §1

MCF-7 = settings: 72 h
Procedure: as §1

Compound	viability inhibition at highest dose (T-47D Tam2)	viability inhibition at highest dose (T-47D; 4-OH-tamoxifen in medium 0 µM)	viability inhibition at highest dose (T-47D; 4-OH-tamoxifen in medium 1 µM)	viability inhibition at highest dose (MCF-7 Tam1)	viability inhibition at highest dose (BT-474 Tam1)	viability inhibition at highest dose (ZR-75-1; 4-OH-tamoxifen in medium 0 µM)	viability inhibition at highest dose (ZR-75-1; 4-OH-tamoxifen in medium 1 µM)	viability inhibition at highest dose (BT-474; 4-OH-tamoxifen in medium 0 µM)	viability inhibition at highest dose (BT-474; 4-OH-tamoxifen in medium 1 µM)	viability inhibition at highest dose (BT-474 Tam2)	viability inhibition at highest dose (T-47D Tam1)	viability inhibition at highest dose (ZR-75-1 Tam1)	viability inhibition at highest dose (ZR-75-1 Tam2)	viability inhibition at highest dose (MCF-7; 4-OH-tamoxifen in medium 0 µM)	viability inhibition at highest dose (MCF-7; 4-OH-tamoxifen in medium 1 µM)
CNC(=O)c1ccc(N2C(=S)N(c3ccc(C#N)c(C(F)(F)F)c3)C(=O)C2(C)C)cc1F [Enzalutamide (MDV 3100)] (drug 10000 nM)	7.78	-6.05	1.03	5.74	7.43	-12.4	-0.801	-1.06	-10	14.2	14	6.65	5.9	-11.1	14.2
C[C@]1(O)C[C@@H](c2nc(-c3ccc4ccc(-c5ccccc5)nc4c3)c3c(N)nccn32)C1 [Linsitinib (OSI-906)] (drug 10000 nM)	29	28.3	33.2	38.1	3.26	14.6	20.1	-2.14	21.6	7.88	84.2	12.2	16.3	52.5	62.4
CN(C)CCOc1ccc(/C(=C(/CCCl)c2ccccc2)c2ccccc2)cc1 [Toremifene (citrate)] (drug 10000 nM)	62	9.04	1.56	35.5	95.2	3.59	24.4	25.6	82.9	99.1	45.2	18.3	25.1	19.2	69.3
CO[C@H](C(=O)[C@@H](O)[C@@H](C)O)[C@@H]1Cc2cc3cc(O[C@H]4C[C@@H](O[C@@H]5C[C@@H](O)[C@H](O)[C@@H](C)O5)[C@H](O)[C@@H](C)O4)c(C)c(O)c3c(O)c2C(=O)[C@H]1O[C@H]1C[C@@H](O[C@@H]2C[C@@H](O)[C@@H](O[C@@H]3C[C@](C)(O)[C@H](O)[C@@H](C)O3)[C@@H](C)O2)[C@H](O)[C@@H](C)O1 [Plicamycin  (Mithramycin A)] (drug 10000 nM)	58.7	68.7	44.3	77.5	95.9	62.6	63.7	67.7	95	95.5	62	75.3	83.4	88.9	88.9
C[C@]12C=CC(=O)C=C1CC[C@@H]1[C@@H]2[C@@H](O)C[C@@]2(C)[C@H]1CC[C@]2(O)C(=O)CO [Prednisolone] (drug 10000 nM)	6.88	-5.27	-8.96	0.119	-1.37	-7.97	0.573	-0.102	-6.44	-3.77	2	-0.584	9.43	12	17.2
COc1c(C)cnc(Cn2cnc3c(Cl)nc(N)nc32)c1C [BIIB021] (drug 10000 nM)	50	65.4	51.5	26.1	72.2	32.2	34.3	48.2	70.8	70.9	46	36.3	39.3	56.8	45.6
Cc1ccc(NC(=O)c2ccc(CN3CCN(C)CC3)cc2)cc1Nc1nccc(-c2cccnc2)n1 [Imatinib] (drug 10000 nM)	20.5	10.4	5.9	4.63	49.1	0.33	17.8	-0.39	23.3	27.2	3.96	7.91	8.38	-13.1	11.1
Nc1cc(C(F)(F)F)c(-c2cc(N3CCOCC3)nc(N3CCOCC3)n2)cn1 [Buparlisib (BKM-120)] (drug 10000 nM)	71.3	75.8	77.6	42.8	93.8	57.9	48.8	64.5	88.6	89.9	70.7	57	61.8	72.8	72.2
Cc1[nH]c2ccccc2c1CCNCc1ccc(/C=C/C(=O)NO)cc1 [Panobinostat] (drug 1000 nM)	68.7	96.4	95.5	21.3	84.4	50.5	40.7	87.5	97.2	69.6	85.3	43.1	51.4	89.4	88.4
COc1cc(Nc2ncc(F)c(Nc3ccc4c(n3)N(COP(=O)(O)O)C(=O)C(C)(C)O4)n2)cc(OC)c1OC (drug 10000 nM)	47.1	40.2	36.8	47.8	55.4	7.12	20.8	-18	41.4	2.03	49.3	28.5	31.6	34.7	70.4
CCNC(=O)CCC/C=C\C[C@@H]1[C@@H](/C=C/[C@@H](O)CCc2ccccc2)[C@H](O)C[C@@H]1O [Bimatoprost] (drug 5500 nM)	-4.37	-18.2	-17.9	-5.08	-14.6	-13.7	-4.04	-10.2	-22.1	-16.2	-9.33	-5.04	-15.8	10.1	-1.71
CS(=O)(=O)c1ccc(C(=O)Nc2ccc(Cl)c(-c3ccccn3)c2)c(Cl)c1 [Vismodegib] (drug 10000 nM)	3.9	3.38	6.47	10.9	18.7	-1.58	4.37	2.54	9.28	6.56	-0.759	5.76	10.7	8.35	5.18
C/C(=C\c1csc(C)n1)[C@@H]1C[C@@H]2O[C@]2(C)CCC[C@H](C)[C@H](O)[C@@H](C)C(=O)C(C)(C)[C@@H](O)CC(=O)N1 [Ixabepilone] (drug 1000 nM)	33.3	45.1	23	-16.3	4.12	-11.9	-5.49	-8.54	41	-14.8	30	-3.74	-5.09	33.8	26.2
Cc1nc(Nc2ncc(C(=O)Nc3c(C)cccc3Cl)s2)cc(N2CCN(CCO)CC2)n1 [Dasatinib] (drug 1000 nM)	35.6 and 31.4	–	30.8 and 16.6	–	37.1 and 33.4	-61.6 and -72.5	-39.5 and -41.9	–	1.98 and 3.29	–	35.9 and 30.8	-34.5 and -23.8	-36.2 and -32.2	–	12.7 and 8.15
